Measured values as given in US20100190846A1, “MICROBICIDAL AGENT AND MICROBICIDAL COMPOSITION” (priority 2006, published 2010).

Assays:
Format in all cases: cell-based
Bacillus subtilis MB-32 = assay: Agar dilution method microbicidal test; on Growth on agar plate: key: +: grew; −: did not grow
In short: (§1)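 MIC was determined by agar dilution in BHI agar at 0.25–4.0 mg/mL final compound, with DMSO as solvent (water for catechin). Plates were spot-inoculated with 10 μL of ~10^6/mL suspension and incubated 18 h at 37 °C. MIC was the lowest concentration preventing growth.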

Yersinia enterocolitica [1] = assay: Agar dilution method microbicidal test; on Growth on agar plate: key: +: grew; −: did not grow
In short: (§2)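 Compound stocks in DMSO mixed into BHI agar → plates at 4.0 to 0.25 mg/mL final; MHB suspensions (turbidity 1, 10^8/mL) diluted 100-fold, 10 μL spotted; 37° C, 18 h; MIC = lowest growth-inhibiting conc.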

Escherichia coli = assay: Agar dilution method microbicidal test; on Growth on agar plate: key: +: grew; −: did not grow
In short: as §1

Enterococcus faecalis = assay: Agar dilution method microbicidal test; further: key: +: grew; −: did not grow
In short: as §1

Pseudomonas aeruginosa = assay: Agar dilution method microbicidal test; on Growth on agar plate: key: +: grew; −: did not grow
In short: as §1

Streptococcus pyogenes = assay: Agar dilution method microbicidal test; on Growth on agar plate: key: +: grew; −: did not grow
In short: as §2

Yersinia enterocolitica [2] = assay: Paper disk method microbicidal test; settings: 2.5 mg/mL solution on 8.12 mm paper disk, 0 mg/mL control: 15.65 (flavone, 40% DMSO), — (catechin)
Method: As microbicidal test method for 5,7,4′-trihydroxy-3′,5′-dimethoxyflavone, the paper disk method was employed, by which method the microbicidal activity can be judged even in cases where a solvent has some influences.
In paper disk method, sample solutions having various sample concentration are prepared, and the sample solution was absorbed in a special paper disk, followed by drying the paper disk. Onto the plate which is made by mixing a prepared bacterial suspension with agar medium, the paper disks are placed. If the sample has a microbicidal activity, the inhibition ring which indicates the inhibition of bacterial growth is formed such that the center of the ring is coincident with the paper disk. The degree of a microbicidal activity is judged based on the size of the inhibition ring.
First, 4 mg of 5,7,4′-trihydroxy-3′,5′-dimethoxyflavone sample was dissolved in 200 μL to prepare 20 mg/mL sample solution. To 100 μL of this 20 mg/mL sample solution, 100 μL of sterilized water was added to prepare 200 μL of 10 mg/mL sample solution. To the solution, 60 μL DMSO and 140 μL of sterilized water were added to prepare 400 μL of 5.0 mg/mL sample solution. DMSO was used in the concentration of 40%, because the sample precipitated from 30% DMSO. To 350 μL of 5.0 mg/mL sample solution, 140 μL DMSO and 210 μL of sterilized water were added to prepare 700 μL of 2.5 mg/mL sample solution. In the same manner, 1.25 mg/mL and 0.625 mg/mL sample solutions were prepared. As a control, a solution containing 40% DMSO and 60% sterilized water was prepared. […] In a paper disk (8.12 mm diameter), 70 μL of these solutions each was absorbed, and the paper disks were dried for a day.
As test bacteria, Staphylococcus aureus, Salmonella sp., Yersinia enterocolitica, Pseudomonas aeruginosa, and Candida sp. were used. These bacteria were mixed with 2 mL of sterilized water to prepare bacterial suspensions having turbidity 1 (10^8/mL). The plate agar was made by mixing 0.2 mL of the bacterial suspension with 19.8 mL of BHI medium. The dried paper disk was placed onto the plate agar, and the plate was incubated in an incubator at 37° C., followed by assessing the activity. In the Table, (-) represents that no microbicidal activity was observed.

Substance: catechin [reference compound]
- Growth on agar plate (Bacillus subtilis MB-32; 0.25 mg/mL): +
- Growth on agar plate (Bacillus subtilis MB-32; 0.5 mg/mL): +
- Growth on agar plate (Bacillus subtilis MB-32; 1.0 mg/mL): +
- Growth on agar plate (Bacillus subtilis MB-32; 2.0 mg/mL): −
- Growth on agar plate (Bacillus subtilis MB-32; 3.0 mg/mL): −
- Growth on agar plate (Bacillus subtilis MB-32; 4.0 mg/mL): −
- MIC (Bacillus subtilis MB-32; BHI agar, 37° C., 18 hours): 2000 µg/mL
- Growth on agar plate (Yersinia enterocolitica [1]; 0.25 mg/mL): +
- Growth on agar plate (Yersinia enterocolitica [1]; 0.5 mg/mL): +
- Growth on agar plate (Yersinia enterocolitica [1]; 1.0 mg/mL): −
- Growth on agar plate (Yersinia enterocolitica [1]; 2.0 mg/mL): −
- Growth on agar plate (Yersinia enterocolitica [1]; 3.0 mg/mL): −
- Growth on agar plate (Yersinia enterocolitica [1]; 4.0 mg/mL): −
- MIC (Yersinia enterocolitica [1]; BHI agar, 37° C., 18 hours): 1000 µg/mL
- Growth on agar plate (Escherichia coli; 0.25 mg/mL): +
- Growth on agar plate (Escherichia coli; 0.5 mg/mL): +
- Growth on agar plate (Escherichia coli; 1.0 mg/mL): +
- Growth on agar plate (Escherichia coli; 2.0 mg/mL): +
- Growth on agar plate (Escherichia coli; 3.0 mg/mL): +
- Growth on agar plate (Escherichia coli; 4.0 mg/mL): +
- MIC (Escherichia coli; BHI agar, 37° C., 18 hours): 2000 µg/mL
- Growth on agar plate (Enterococcus faecalis; 0.25 mg/mL): +
- Growth on agar plate (Enterococcus faecalis; 0.5 mg/mL): +
- Growth on agar plate (Enterococcus faecalis; 1.0 mg/mL): +
- Growth on agar plate (Enterococcus faecalis; 2.0 mg/mL): +
- Growth on agar plate (Enterococcus faecalis; 3.0 mg/mL): +
- Growth on agar plate (Enterococcus faecalis; 4.0 mg/mL): +
- Growth on agar plate (Pseudomonas aeruginosa; 0.25 mg/mL): +
- Growth on agar plate (Pseudomonas aeruginosa; 0.5 mg/mL): +
- Growth on agar plate (Pseudomonas aeruginosa; 1.0 mg/mL): −
- Growth on agar plate (Pseudomonas aeruginosa; 2.0 mg/mL): −
- Growth on agar plate (Pseudomonas aeruginosa; 3.0 mg/mL): −
- Growth on agar plate (Pseudomonas aeruginosa; 4.0 mg/mL): −
- MIC (Pseudomonas aeruginosa; BHI agar, 37° C., 18 hours): 1000 µg/mL
- Growth on agar plate (Streptococcus pyogenes; 0.25 mg/mL): +
- Growth on agar plate (Streptococcus pyogenes; 0.5 mg/mL): +
- Growth on agar plate (Streptococcus pyogenes; 1.0 mg/mL): +
- Growth on agar plate (Streptococcus pyogenes; 2.0 mg/mL): −
- Growth on agar plate (Streptococcus pyogenes; 3.0 mg/mL): −
- Growth on agar plate (Streptococcus pyogenes; 4.0 mg/mL): −
- MIC (Streptococcus pyogenes; BHI agar, 37° C., 18 hours): 2000 µg/mL
- size of the inhibition ring (Yersinia enterocolitica [2]): 9.49
